In US9637516B2, “Betulinic acid proline derivatives as HIV inhibitors” (HETERO RESEARCH FOUNDATION, priority 2012, dated 2017):

Assays:
HIV-1 strain 92HT599 = assay: Antiviral activity: p24 estimation in MT2 cells infected with HIV-1 strain 92HT599; assay type: cell-based; conditions: for inhibition at 0.1 µM: Human immunodeficiency virus 1, 100 nM; for inhibition at 0.1 µM / inhibition at 1 µM: HIV-1 92HT599, p24, ~96 hours; for inhibition at 1 µM: Human immunodeficiency virus 1, 1000 nM; for IC50: Human immunodeficiency virus 1, HIV-1 92HT599, p24
Experimental: MT2 cells were infected with HIV-1 strain 92HT599 (10 TCID 50/30000 cells). The infected cells were plated at the concentration of ˜30 000 cells per well in 96 well plate. Test compound was added to the micro plate in defined format with the final concentration of DMSO (vehicle) is not more than 1%. Incubation was carried out in CO2 incubator for ˜96 hours for viral infection. At the end of incubation period an aliquot from each well was taken for p24 estimation. The quantitation of p24 is an index for antiviral activity of the compound. Percent inhibition was calculated with reference to control values (vehicle controls). p-24 estimation was carried out using Advance biosciences kit as per the procedure detailed by supplier.

in vitro = assay type: cell-based; conditions: human, Cytotoxicity % viability
Experimental: (§1) For cyto-toxicity assay the same amount of MT2 cells as in antiviral assay without virus was added to the 96 well plates. The cyto-toxicity was measured using MTT reagent in parallel with p24 estimation. The percent viability is calculated in comparison with vehicle control.

[1] = Single dose oral pharmacokinetic study; assay type: in vivo, mice; conditions: mouse, plasma
Experimental: The test item was administered through oral route to animals (rat/mice) at 30 mg/kg dose in a suitable vehicle at 10 ml/kg dose volume. Blood samples (˜50 uL at each time point) were collected from retro-orbital plexus using K3 EDTA as anticoagulant in eppendorf tubes at defined time intervals under light ether anesthesia. The samples were centrifuged at 3500×g to separate plasma and stored at −80° C. until analysis.
Sample analysis: Test samples were analyzed using LC-MS-MS after developing fit-for-purpose method for each of test compound.

MT2 cells = assay: in vitro; assay type: cell-based; conditions: human, 1 µM
Experimental: as §1

[2] = Mice oral PK @30 mg/kg (Table 3)
[3] = Mice oral PK @30 mg/kg (Table 4)

In the case of `CC(C)(CC(=O)O[C@H]1CC[C@]2(C)[C@H]3CC[C@@H]4[C@H]5[C@H](C6(C)CC6)CC[C@]5(C(=O)N5CCC[C@H]5c5ncc(-c6ccccc6)[nH]5)CC[C@@]4(C)[C@]3(C)CC[C@H]2C1(C)C)C(=O)O` [Compound 12, 2,2-dimethyl-4-oxo-4-((1R,3aS,5aR,5bR,7aR,9S,11aR,11bR,13aR,13bR)-5a,5b,8,8,11a-pentamethyl-1-(1-methylcyclopropyl)-3a-((S)-2-(5-phenyl-1H-imidazol-2-yl)pyrrolidine-1-carbonyl)icosahydro-1H-cyclopenta[a]chrysen-9-yloxy)butanoic acid], the inhibition at 0.1 µM (HIV-1 strain 92HT599) is reported as 100%, the inhibition at 1 µM (HIV-1 strain 92HT599) is reported as 100% and the IC50 (HIV-1 strain 92HT599) is reported as 4.59 nM. For the same compound, the viability at 1 µM (in vitro) was 85%, the AUC(0-t) [1, 2] was 69300 ng·h/mL and the Cmax [1, 2] was 7260 ng/mL. It also gave a Tmax [1, 2] of 3 h.

`C=C(C)[C@@H]1CC[C@]2(C(=O)N3CCC[C@H]3c3ncc(-c4ccccc4)[nH]3)CC[C@]3(C)[C@H](CC[C@@H]4[C@@]5(C)CC[C@H](OC(=O)CC(C)(C)CC(=O)O)C(C)(C)[C@@H]5CC[C@]43C)[C@@H]12` [Compound 9, 3,3-dimethyl-5-oxo-5-((1R,3aS,5aR,5bR,7aR,9S,11aR,11bR,13aR,13bR)-5a,5b,8,8,11a-pentamethyl-3a-((S)-2-(5-phenyl-1H-imidazol-2-yl)pyrrolidine-1-carbonyl)-1-(prop-1-en-2-yl)icosahydro-1H-cyclopenta[a]chrysen-9-yloxy)pentanoic acid] showed an inhibition at 0.1 µM (HIV-1 strain 92HT599) of 81%, an inhibition at 1 µM (HIV-1 strain 92HT599) of 98% and a viability at 1 µM (in vitro) of 100%. It also gave a Cytotoxicity % viability (MT2 cells) of 99%, an AUC(0-t) [1, 2] of 58000 ng·h/mL and a Cmax [1, 2] of 5460 ng/mL. It also gave a Tmax [1, 2] of 6 h.

Work on `CC(C)(CC(=O)O)CC(=O)O[C@H]1CC[C@]2(C)[C@H]3CC[C@@H]4[C@H]5[C@H](C6(C)CC6)CC[C@]5(C(=O)N5CCC[C@H]5c5ncc(-c6ccccc6)[nH]5)CC[C@@]4(C)[C@]3(C)CC[C@H]2C1(C)C` [Compound 13, 3,3-dimethyl-5-oxo-5-((1R,3aS,5aR,5bR,7aR,9S,11aR,11bR,13aR,13bR)-5a,5b,8,8,11a-pentamethyl-1-(1-methylcyclopropyl)-3a-((S)-2-(5-phenyl-1H-imidazol-2-yl)pyrrolidine-1-carbonyl)icosahydro-1H-cyclopenta[a]chrysen-9-yloxy)pentanoic acid] yielded an inhibition at 0.1 µM (HIV-1 strain 92HT599) of 78%, an inhibition at 1 µM (HIV-1 strain 92HT599) of 100% and a viability at 1 µM (in vitro) of 74%. For the same compound, the Cytotoxicity % viability (MT2 cells) was 72%, the AUC(0-t) [1, 2] was 156000 ng·h/mL and the Cmax [1, 2] was 11100 ng/mL. For the same compound, the Tmax [1, 2] was 4 h.

Compound `C=C(C)[C@@H]1CC[C@]2(C(=O)N3CCC[C@H]3c3ncc(-c4ccccc4)[nH]3)CC[C@]3(C)[C@H](CC[C@@H]4[C@@]5(C)CC[C@H](OC(=O)[C@H]6C[C@@H](C(=O)O)C6(C)C)C(C)(C)[C@@H]5CC[C@]43C)[C@@H]12` [Compound 14] has an inhibition at 0.1 µM (HIV-1 strain 92HT599) of 94%, an inhibition at 1 µM (HIV-1 strain 92HT599) of 100% and an IC50 (HIV-1 strain 92HT599) of 15.3 nM. For the same compound, the viability at 1 µM (in vitro) was 82%, the Cytotoxicity % viability (MT2 cells) was 86% and the AUC(0-t) [1, 2] was 171000 ng·h/mL. The Cmax [1, 2] was 11000 ng/mL and the Tmax [1, 2] was 5 h.

For `CC(C)(CC(=O)O[C@H]1CC[C@]2(C)[C@H]3CC[C@@H]4[C@H]5[C@H](C6(C)CC6)CC[C@]5(C(=O)N5CCC[C@@H]5c5nc(-c6ccccc6)no5)CC[C@@]4(C)[C@]3(C)CC[C@H]2C1(C)C)C(=O)O` [Compound 5, 2,2-dimethyl-4-oxo-4-((1R,3aS,5aR,5bR,7aR,9S,11aR,11bR,13aR,13bR)-5a,5b,8,8,11a-pentamethyl-1-(1-methylcyclopropyl)-3a-((R)-2-(3-phenyl-1,2,4-oxadiazol-5-yl)pyrrolidine-1-carbonyl)icosahydro-1H-cyclopenta[a]chrysen-9-yloxy)butanoic acid], the inhibition at 0.1 µM (HIV-1 strain 92HT599) was 64%, the inhibition at 1 µM (HIV-1 strain 92HT599) was 99% and the viability at 1 µM (in vitro) was 91%. For the same compound, the Cytotoxicity % viability (MT2 cells) was 100%.

In the case of `C=C(C)[C@@H]1CC[C@]2(C(=O)N3CCC[C@@H]3c3nc(-c4ccccc4)no3)CC[C@]3(C)[C@H](CC[C@@H]4[C@@]5(C)CC[C@H](OC(=O)CC(C)(C)CC(=O)O)C(C)(C)[C@@H]5CC[C@]43C)[C@@H]12` [Compound 2, 3,3-dimethyl-5-oxo-5-((1R,3aS,5aR,5bR,7aR,9S,11aR,11bR,13aR,13bR)-5a,5b,8,8,11a-pentamethyl-3a-((R)-2-(3-phenyl-1,2,4-oxadiazol-5-yl)pyrrolidine-1-carbonyl)-1-(prop-1-en-2-yl)icosahydro-1H-cyclopenta[a]chrysen-9-yloxy)pentanoic acid], the inhibition at 0.1 µM (HIV-1 strain 92HT599) is reported as 30%, the inhibition at 1 µM (HIV-1 strain 92HT599) is reported as 90% and the viability at 1 µM (in vitro) is reported as 90%. For the same compound, the Cytotoxicity % viability (MT2 cells) was 92%.

For `CC(C)(CC(=O)O[C@H]1CC[C@]2(C)[C@H]3CC[C@@H]4[C@H]5[C@H](C6(C)CC6)CC[C@]5(C(=O)N5CCC[C@H]5c5ncc(-c6cccnc6)[nH]5)CC[C@@]4(C)[C@]3(C)CC[C@H]2C1(C)C)C(=O)O` [Compound 30, 2,2-dimethyl-4-oxo-4-(((1R,3aS,5aR,5bR,7aR,9S,11aR,11bR,13aR,13bR)-5a,5b,8,8,11a-pentamethyl-1-(1-methylcyclopropyl)-3a-((S)-2-(5-(pyridin-3-yl)-1H-imidazol-2-yl)pyrrolidine-1-carbonyl)icosahydro-1H-cyclopenta[a]chrysen-9-yl)oxy)butanoic acid], the IC50 (HIV-1 strain 92HT599) was 3.83 nM, the AUC(0-inf) [1, 3] was 57800 ng·h/mL and the AUC(0-t) [1, 3] was 54600 ng·h/mL. It also gave a Cmax [1, 3] of 6400 ng/mL and a half-life [1, 3] of 1.7 h.

With `CC(C)(CC(=O)O[C@H]1CC[C@]2(C)[C@H]3CC[C@@H]4[C@H]5[C@H](C6(C)CC6)CC[C@]5(C(=O)N5CCC[C@H]5c5ncc(-c6ccc(F)cc6)[nH]5)CC[C@@]4(C)[C@]3(C)CC[C@H]2C1(C)C)C(=O)O` [Compound 33, 4-(((1R,3aS,5aR,5bR,7aR,9S,11aR,11bR,13aR,13bR)-3a-((S)-2-(5-(4-fluorophenyl)-1H-imidazol-2-yl)pyrrolidine-1-carbonyl)-5a,5b,8,8,11a-pentamethyl-1-(1-methylcyclopropyl)icosahydro-1H-cyclopenta[a]chrysen-9-yl)oxy)-2,2-dimethyl-4-oxobutanoic acid] the IC50 (HIV-1 strain 92HT599) was 9.5 nM, the AUC(0-inf) [1, 3] was 152000 ng·h/mL and the AUC(0-t) [1, 3] was 88700 ng·h/mL. The Cmax [1, 3] was 4400 ng/mL and the half-life [1, 3] was 32.1 h.

Compound `C=C(C)[C@@H]1CC[C@]2(C(=O)N3CCC[C@@H]3c3nc(-c4ccccc4)no3)CC[C@]3(C)[C@H](CC[C@@H]4[C@@]5(C)CC[C@H](OC(=O)CC(C)(C)C(=O)O)C(C)(C)[C@@H]5CC[C@]43C)[C@@H]12` [Compound 1, 2,2-dimethyl-4-oxo-4-((1R,3aS,5aR,5bR,7aR,9S,11aR,11bR,13aR,13bR)-5a,5b,8,8,11a-pentamethyl-3a-((R)-2-(3-phenyl-1,2,4-oxadiazol-5-yl)pyrrolidine-1-carbonyl)-1-(prop-1-en-2-yl)icosahydro-1H-cyclopenta[a]chrysen-9-yloxy)butanoic acid] has an IC50 (HIV-1 strain 92HT599) of 5.02 nM, an AUC(0-t) [1, 2] of 125000 ng·h/mL and a Cmax [1, 2] of 12700 ng/mL. For the same compound, the Tmax [1, 2] was 6 h.
